According to publication PMC10790229 (Journal of medicinal chemistry, 2023):

Columns and labels:
Type in all cases: cell-based
HIV-2 ROD = assay: Anti-HIV-2 activity in MT-4 cells; conditions: HIV-2 ROD; for EC50: read-out: EC50 ROD, 50% protection of MT-4 cells against HIV-induced cytotoxicity
HIV-1 IIIB = assay: Anti-HIV-1 activity in MT-4 cells; conditions: MT-4 cells; for SI IIIB (CC50/EC50): HIV-1 IIIB
MT-4 cells = assay: Cytotoxicity in uninfected MT-4 cells

| Molecule | SI ROD (CC50/EC50) (HIV-2 ROD; MT-4 cells) | EC50 (HIV-2 ROD) [µM] | SI IIIB (CC50/EC50) (HIV-1 IIIB) | Ratio IIIB(EC50)/ROD(EC50) (HIV-1 IIIB) | CC50 (MT-4 cells) [µM] | fold improvement of anti-HIV-2 potency over PF74 (HIV-2 ROD; MT-4 cells) [fold] |
| --- | --- | --- | --- | --- | --- | --- |
| (S)-N-(2-(3,5-Difluorophenyl)-1-(7-fluoro-3-(4-methoxyphenyl)-4-oxo-3,4-dihydroquinazolin-2-yl)ethyl)-2-(4-((4-nitrophenyl)sulfonyl)-2-oxopiperazin-1-yl)acetamide [11b2] | >480.77 | 0.35 ± 0.03 | >337.84 | 1.40 | > 167 |  |
| (S)-N-(1-(7-Chloro-3-(4-methoxyphenyl)-4-oxo-3,4-dihydroquinazolin-2-yl)-2-(3,5-difluorophenyl)ethyl)-2-(4-((4-nitrophenyl)sulfonyl)-2-oxopiperazin-1-yl)acetamide [11c2] | >403.23 | 0.4 ± 0.1 | >277.78 | 1.48 | > 163 |  |
| COc1ccc(-n2c([C@H](Cc3cc(F)cc(F)c3)NC(=O)CN3CCN(S(=O)(=O)c4ccc(N)cc4)CC3=O)nc3cc(F)ccc3c2=O)cc1 [12b2, (S)-2-(4-((4-Aminophenyl)sulfonyl)-2-oxopiperazin-1-yl)-N-(2-(3,5-difluorophenyl)-1-(7-fluoro-3-(4-methoxyphenyl)-4-oxo-3,4-dihydroquinazolin-2-yl)ethyl)acetamide] | >1488.10 | 0.12 ± 0.03 | >568.18 | 2.58 | > 173 |  |
| (S)-2-(4-((4-Aminophenyl)sulfonyl)-2-oxopiperazin-1-yl)-N-(1-(3-(4-methoxyphenyl)-7-(methylsulfonyl)-4-oxo-3,4-dihydroquinazolin-2-yl)-2-phenylethyl)acetamide [12e1] | >480.77 | 0.35 ± 0.03 | >43.71 | 10.97 | > 168 |  |
| (S)-2-(4-((4-Aminophenyl)sulfonyl)-2-oxopiperazin-1-yl)-N-(1-(3-(4-(morpholinosulfonyl)phenyl)-4-oxo-3,4-dihydroquinazolin-2-yl)-2-phenylethyl)acetamide [21a1] | >1562.50 | 0.1 ± 0.01 | >1041.67 | 1.50 | > 159 |  |
| COc1ccc(-n2c([C@H](Cc3cc(F)cc(F)c3)NC(=O)CN3CCN(S(=O)(=O)c4ccc([N+](=O)[O-])cc4)CC3=O)nc3cc(S(C)(=O)=O)ccc3c2=O)cc1 [11e2, (S)-N-(2-(3,5-Difluorophenyl)-1-(3-(4-methoxyphenyl)-7-(methylsulfonyl)-4-oxo-3,4-dihydroquinazolin-2-yl)ethyl)-2-(4-((4-nitrophenyl)sulfonyl)-2-oxopiperazin-1-yl)acetamide] | >378.79 | 0.41 ± 0.05 | >83.89 | 4.49 | > 154 |  |
| COc1ccc(-n2c([C@H](Cc3ccccc3)NC(=O)CN3CCN(S(=O)(=O)c4ccc([N+](=O)[O-])cc4)CC3=O)nc3cc(Cl)ccc3c2=O)cc1 [11c1, (S)-N-(1-(7-Chloro-3-(4-methoxyphenyl)-4-oxo-3,4-dihydroquinazolin-2-yl)-2-phenylethyl)-2-(4-((4-nitrophenyl)sulfonyl)-2-oxopiperazin-1-yl)acetamide] | >403.23 | 0.42 ± 0.04 | >79.11 | 5.14 | > 171 |  |
| COc1ccc(-n2c([C@H](Cc3cc(F)cc(F)c3)NC(=O)CN3CCN(S(=O)(=O)c4ccc([N+](=O)[O-])cc4)CC3=O)nc3ccccc3c2=O)cc1 [11a2, (S)-N-(2-(3,5-Difluorophenyl)-1-(3-(4-methoxyphenyl)-4-oxo-3,4-dihydroquinazolin-2-yl)ethyl)-2-(4-((4-nitrophenyl)sulfonyl)-2-oxopiperazin-1-yl)acetamide] | >416.67 | 0.41 ± 0.04 | >320.51 | 1.29 | > 171 |  |
| Nc1ccc(S(=O)(=O)N2CCN(CC(=O)N[C@@H](Cc3cc(F)cc(F)c3)c3nc4ccccc4c(=O)n3-c3ccc(S(=O)(=O)N4CCS(=O)(=O)CC4)cc3)C(=O)C2)cc1 [21b2, (S)-2-(4-((4-Aminophenyl)sulfonyl)-2-oxopiperazin-1-yl)-N-(2-(3,5-difluorophenyl)-1-(3-(4-((1,1-dioxidothiomorpholino)sulfonyl)-phenyl)-4-oxo-3,4-dihydroquinazolin-2-yl)ethyl)acetamide] | >240.38 | 0.6 ± 0.15 | >95.42 | 2.52 | > 144 |  |
| Nc1ccc(S(=O)(=O)N2CCN(CC(=O)N[C@@H](Cc3ccccc3)c3nc4ccccc4c(=O)n3-c3ccc(S(=O)(=O)N4CCS(=O)(=O)CC4)cc3)C(=O)C2)cc1 [21b1, (S)-2-(4-((4-Aminophenyl)sulfonyl)-2-oxopiperazin-1-yl)-N-(1-(3-(4-((1,1-dioxidothiomorpholino)sulfonyl)phenyl)-4-oxo-3,4-dihydroquinazolin-2-yl)-2-phenylethyl)acetamide] | >277.78 | 0.54 ± 0.13 | >75.76 | 3.67 | > 150 |  |
| COc1ccc(-n2c([C@H](Cc3cc(F)cc(F)c3)NC(=O)CN3CCN(S(=O)(=O)c4ccc(N)cc4)CC3=O)nc3cc(Cl)ccc3c2=O)cc1 [12c2, (S)-2-(4-((4-Aminophenyl)sulfonyl)-2-oxopiperazin-1-yl)-N-(1-(7-chloro-3-(4-methoxyphenyl)-4-oxo-3,4-dihydroquinazolin-2-yl)-2-(3,5-difluorophenyl)ethyl)acetamide] | >2083.33 | 0.08 ± 0.01 | >1250.00 | 1.75 | > 170 | 47 |
| (S)-2-(4-((4-Aminophenyl)sulfonyl)-2-oxopiperazin-1-yl)-N-(1-(3-(4-methoxyphenyl)-4-oxo-3,4-dihydroquinazolin-2-yl)-2-phenylethyl)acetamide [12a1] | >1250.00 | 0.15 ± 0.04 | >290.70 | 4.27 | > 187 |  |
| COc1ccc(-n2c([C@H](Cc3ccccc3)NC(=O)CN3CCN(S(=O)(=O)c4ccc(N)cc4)CC3=O)nc3cc(F)ccc3c2=O)cc1 [12b1, (S)-2-(4-((4-Aminophenyl)sulfonyl)-2-oxopiperazin-1-yl)-N-(1-(7-fluoro-3-(4-methoxyphenyl)-4-oxo-3,4-dihydroquinazolin-2-yl)-2-phenylethyl)acetamide] | >1250.00 | 0.15 ± 0.03 | >223.21 | 5.47 | > 183 |  |
| (S)-2-(4-((4-Aminophenyl)sulfonyl)-2-oxopiperazin-1-yl)-N-(1-(7-chloro-3-(4-methoxyphenyl)-4-oxo-3,4-dihydroquinazolin-2-yl)-2-phenylethyl)acetamide [12c1] | >1736.11 | 0.1 ± 0.02 | >290.70 | 6.10 | > 178 |  |
| COc1ccc(-n2c([C@H](Cc3ccccc3)NC(=O)CN3CCN(S(=O)(=O)c4ccc([N+](=O)[O-])cc4)CC3=O)nc3cc(S(C)(=O)=O)ccc3c2=O)cc1 [11e1, (S)-N-(1-(3-(4-Methoxyphenyl)-7-(methylsulfonyl)-4-oxo-3,4-dihydroquinazolin-2-yl)-2-phenylethyl)-2-(4-((4-nitrophenyl)-sulfonyl)-2-oxopiperazin-1-yl)acetamide] | >500.00 | 0.32 ± 0.03 | >58.14 | 8.66 | > 161 |  |
| O=C(CN1CCN(S(=O)(=O)c2ccc([N+](=O)[O-])cc2)CC1=O)N[C@@H](Cc1ccccc1)c1nc2ccccc2c(=O)n1-c1ccc(S(=O)(=O)N2CCS(=O)(=O)CC2)cc1 [20b1, (S)-N-(1-(3-(4-((1,1-Dioxidothiomorpholino)sulfonyl)phenyl)-4-oxo-3,4-dihydroquinazolin-2-yl)-2-phenylethyl)-2-(4-((4-nitrophenyl)sulfonyl)-2-oxopiperazin-1-yl)acetamide] | >198.41 | 0.73 ± 0.16 | >11.47 | 17.29 | > 145 |  |
| O=C(CN1CCN(S(=O)(=O)c2ccc([N+](=O)[O-])cc2)CC1=O)N[C@@H](Cc1cc(F)cc(F)c1)c1nc2ccccc2c(=O)n1-c1ccc(S(=O)(=O)N2CCOCC2)cc1 [20a2, (S)-N-(2-(3,5-Difluorophenyl)-1-(3-(4-(morpholinosulfonyl)-phenyl)-4-oxo-3,4-dihydroquinazolin-2-yl)ethyl)-2-(4-((4-nitrophenyl)sulfonyl)-2-oxopiperazin-1-yl)acetamide] | >833.33 | 0.18 ± 0.05 | >892.86 | 0.89 | > 147 |  |
| COc1ccc(-n2c([C@H](Cc3cc(F)cc(F)c3)NC(=O)CN3CCN(S(=O)(=O)c4ccc([N+](=O)[O-])cc4)CC3=O)nc3cc(Br)ccc3c2=O)cc1 [11d2, (S)-N-(1-(7-Bromo-3-(4-methoxyphenyl)-4-oxo-3,4-dihydroquinazolin-2-yl)-2-(3,5-difluorophenyl)ethyl)-2-(4-((4-nitrophenyl)sulfonyl)-2-oxopiperazin-1-yl)acetamide] | >260.42 | 0.59 ± 0.2 | >156.25 | 1.68 | > 154 |  |
| COc1ccc(-n2c([C@H](Cc3ccccc3)NC(=O)CN3CCN(S(=O)(=O)c4ccc([N+](=O)[O-])cc4)CC3=O)nc3ccccc3c2=O)cc1 [11a1, (S)-N-(1-(3-(4-Methoxyphenyl)-4-oxo-3,4-dihydroquinazolin-2-yl)-2-phenylethyl)-2-(4-((4-nitrophenyl)sulfonyl)-2-oxopiperazin-1-yl)acetamide] | >312.50 |  | >119.05 |  |  |  |
